In brackets after ≈: the same amount, converted by molar mass. Entries after “also recorded” stand apart in the source; their conditions may differ. Blank lines part the entries; values can stand above or below the compound they belong to.
Key:
[1] = Aqueous solubility, Shake-Flask method and HPLC; format: physicochemical; conditions: water with 2% DMSO
[2] = test system: wild-type zebrafish (Danio rerio) embryos; assay: Wild-type zebrafish embryo phenotype assay; conditions: for Lethality in zebrafish embryos: concentration range < 60μM, added 24 hpf, compared at 96 and 120 hpf
[3] = target: GSK-3β (Sus scrofa, UniProt B2LUN4); assay: Commercial in vitro GSK-3β inhibition assay at single concentration; format: biochemical, porcine; conditions: duplicates; for inhibition at 1 µM: read-out: GSK-3β Inhibition [%], 1 μM of compound
[4] = target: GSK-3α (Sus scrofa, UniProt I6LNT8); assay: Commercial in vitro GSK-3α inhibition assay at single concentration; format: biochemical, porcine; conditions: read-out: GSK-3α Inhibition [%]
[5] = test system: Tyr279 GSK-3α phosphorylation; assay: GSK-3α Tyr279 phosphorylation in AML cells; format: cell-based; conditions: 24h treatment, increasing concentrations, NB4
[6] = test system: AML cell lines (HL-60 and NB4); assay: AML differentiation; format: cell-based; conditions: 6 days of treatment
[7] = test system: NB4 and HL-60 cell lines; assay: Methylcellulose colony formation; format: cell-based; conditions: concentration-dependent
[8] = test system: Tyr216 GSK-3β phosphorylation; assay: GSK-3β Tyr216 phosphorylation in AML cells; format: cell-based; conditions: up to 20 μM; 24h treatment, NB4
[9] = target: GSK-3β (h) (Homo sapiens, UniProt P49841); assay: IC50 determination GSK-3β; format: biochemical
Sequence of GSK-3β (h) (P49841 whole entry): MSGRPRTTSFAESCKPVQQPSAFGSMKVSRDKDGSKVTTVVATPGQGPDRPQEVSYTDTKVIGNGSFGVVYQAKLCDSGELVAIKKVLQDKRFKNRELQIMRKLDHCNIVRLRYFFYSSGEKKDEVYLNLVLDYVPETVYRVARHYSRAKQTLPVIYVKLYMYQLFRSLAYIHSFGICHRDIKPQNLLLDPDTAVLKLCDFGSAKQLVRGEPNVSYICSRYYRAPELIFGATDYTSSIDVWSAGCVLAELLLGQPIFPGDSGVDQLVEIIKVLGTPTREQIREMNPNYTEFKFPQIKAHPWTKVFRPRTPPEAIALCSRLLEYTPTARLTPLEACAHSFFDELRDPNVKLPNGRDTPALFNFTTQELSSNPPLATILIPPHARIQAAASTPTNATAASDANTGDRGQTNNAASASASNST

Sequence of GSK-3β (B2LUN4 1-420): as the sequence (P49841 whole entry) above, with V40M, T59A, T392S, A400T, T402A, A411T counted along it
Sequence of GSK-3α (I6LNT8 1-483): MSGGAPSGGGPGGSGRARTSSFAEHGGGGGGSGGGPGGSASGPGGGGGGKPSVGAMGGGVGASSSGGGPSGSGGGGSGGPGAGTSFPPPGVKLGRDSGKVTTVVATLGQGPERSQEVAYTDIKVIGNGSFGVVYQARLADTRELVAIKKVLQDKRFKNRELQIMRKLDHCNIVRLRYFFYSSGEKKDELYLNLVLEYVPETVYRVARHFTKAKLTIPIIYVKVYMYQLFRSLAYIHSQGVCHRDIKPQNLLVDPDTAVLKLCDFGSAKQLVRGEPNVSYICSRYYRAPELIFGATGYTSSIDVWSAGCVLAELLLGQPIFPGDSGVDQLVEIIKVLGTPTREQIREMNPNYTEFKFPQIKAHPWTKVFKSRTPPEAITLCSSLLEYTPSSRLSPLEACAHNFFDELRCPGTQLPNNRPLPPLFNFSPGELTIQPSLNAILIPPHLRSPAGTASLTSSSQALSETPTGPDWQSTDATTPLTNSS

Compound: N#Cc1ccc(-c2ccc(CSc3nnc(-c4ccc5c(c4)OCCO5)o3)cc2)nc1 [Compound 13d, 6-(4-((5-(2,3-Dihydrobenzo[b][1,4]dioxin-6-yl)-1,3,4-oxadiazol-2-ylthio)methyl)phenyl)-nicotinonitrile]
- Lethality in zebrafish embryos [2]: no lethality
- Effects on zebrafish embryo phenotype ([2]; in vivo): no effects
- solubility [1]: 78 µg/mL (≈ 182 µM)

Compound: N#Cc1cc(F)ccc1-c1ccc(CS(=O)(=O)c2nnc(-c3ccc4c(c3)OCCO4)o2)cc1 [Compound 26, 4′-((5-(2,3-Dihydrobenzo[b][1,4]dioxin-6-yl)-1,3,4-oxadiazol-2-yl-sulfonyl)methyl)-4-fluorbiphenyl-2-carbonitrile]
- inhibition at 0.1 µM ([3]; read-out: GSK-3β Inhibition [%], 100 nM of compound): 0%
- inhibition at 0.1 µM [4]: 0%

Compound: NC(=O)c1cc(F)ccc1-c1ccc(CSc2nnc(-c3ccc4c(c3)OCCO4)o2)cc1 [Compound 27, 4′-((5-(2,3-Dihydrobenzo[b][1,4]dioxin-6-yl)-1,3,4-oxadiazol-2-yl-thio)-methyl)-4-fluorbiphenyl-2-carboxamide]
- Lethality in zebrafish embryos [2]: no lethality; also recorded: without lethality
- Zebrafish embryo phenotype at higher concentrations ([2]; in vivo): all zebrafish embryos showed a stunted and crooked tailed phenotype
- Zebrafish embryo phenotype at lower concentrations ([2]; in vivo): no abnormalities were observed
- inhibition at 1 µM [3]: 100%
- Tyr279 GSK-3α phosphorylation [5]: concentration-dependent decrease
- Morphological and surface marker changes [6]: consistent with AML differentiation
- inhibition at 1 µM [4]: 100%
- solubility [1]: 34 µg/mL (≈ 73.4 µM)
- Methylcellulose colony formation [7]: colony formation impairment
- Tyr216 GSK-3β phosphorylation [8]: without any relevant effect
- IC50 [9]: 14 nM

Compound: N#Cc1cc(F)ccc1-c1ccc(CSc2nnc(-c3ccc4nc[nH]c4c3)o2)cc1 [Compound 12a, 4′-(((5-(1H-Benzo[d]imidazol-6-yl)-1,3,4-oxadiazol-2-yl)thio)methyl)-4-fluoro-[1,1′-biphenyl]-2-carbonitrile]
- inhibition at 1 µM [3]: 0%

Compound: N#Cc1cc(F)ccc1-c1ccc(CSc2nnc(-c3ccc4c(c3)OCCO4)o2)cc1 [Compound 1, 4′-(((5-(2,3-Dihydrobenzo[b][1,4]dioxin-6-yl)-1,3,4-oxadiazol-2-yl)thio)methyl)-4-fluoro-[1,1′-biphenyl]-2-carbonitrile]
- solubility [1]: < 1 µg/mL

Other lines, results leading:

- solubility [1]: < 1 µg/mL
Compound: Fc1ccc(-c2ccc(CSc3nnc(-c4ccc5c(c4)OCCO5)o3)cn2)cn1 [Compound 18c, 2-(2,3-Dihydrobenzo[b][1,4]dioxin-6-yl)-5-(((6′-fluoro-[2,3′-bipyridin]-5-yl)methyl)thio)-1,3,4-oxadiazole]

- solubility [1]: < 1 µg/mL
Compound: Cc1ccc(-c2ccc(CSc3nnc(-c4ccc5c(c4)OCCO5)o3)cc2)nc1 [Compound 13e, 2-(2,3-Dihydrobenzo[b][1,4]dioxin-6-yl)-5-(4-(5-methylpyridin-2-yl)benzylthio)-1,3,4-oxadiazole]

- solubility [1]: 7 µg/mL (≈ 16.6 µM)
Compound: Fc1ccc(-c2ccc(CSc3nnc(-c4ccc5c(c4)OCCO5)o3)cc2)cn1 [Compound 13f, 2-(2,3-Dihydrobenzo[b][1,4]dioxin-6-yl)-5-((4-(6-fluoropyridin-3-yl)benzyl)thio)-1,3,4-oxadiazole]
